In ChEMBL document CHEMBL3217418, “Design, synthesis and biological activity evaluation of regioisomeric spiro-(indoline-isoxazolidines) in the inhibition of TNF--induced ICAM-1 expression on human endothelial cells” (Medchemcomm, 2012):
pIC50: −log10 of the molar value. Calls of active or inactive are those of the source. The calls are words filed in the database; no cut-off is given here.

How the values were obtained:
HUVEC = test: Antiinflammatory activity in HUVEC assessed as inhibition of TNFalpha-induced ICAM-1 expression incubated for 2 hrs prior to TNFalpha challenge measured after 16 hrs by ELISA; type: functional, cell-based; settings: Homo sapiens
[1] = Cytotoxicity against HUVEC assessed as cell viability after 24 hrs by MTT assay relative to control; type: cell-based; design: concentration or dose not given beside the values; settings: human, HUVEC cells; read-out: Activity
[2] = Cytotoxicity against HUVEC assessed as concentration at which viability is > 95 % after 24 hrs by MTT assay; type: cell-based; settings: human, HUVEC cells; read-out: MTD
[3] = biological target: Transcription factor p65 (Homo sapiens) (UniProt Q04206); test: Inhibition of NF-kappaB p65 subunit translocation from cytoplasm to nucleus in HUVEC at 100 uM incubated for 2 hrs prior to TNFalpha challenge measured after 30 mins by SDS-PAGE
Transcription factor p65 (Homo sapiens), sequence (Q04206 whole entry): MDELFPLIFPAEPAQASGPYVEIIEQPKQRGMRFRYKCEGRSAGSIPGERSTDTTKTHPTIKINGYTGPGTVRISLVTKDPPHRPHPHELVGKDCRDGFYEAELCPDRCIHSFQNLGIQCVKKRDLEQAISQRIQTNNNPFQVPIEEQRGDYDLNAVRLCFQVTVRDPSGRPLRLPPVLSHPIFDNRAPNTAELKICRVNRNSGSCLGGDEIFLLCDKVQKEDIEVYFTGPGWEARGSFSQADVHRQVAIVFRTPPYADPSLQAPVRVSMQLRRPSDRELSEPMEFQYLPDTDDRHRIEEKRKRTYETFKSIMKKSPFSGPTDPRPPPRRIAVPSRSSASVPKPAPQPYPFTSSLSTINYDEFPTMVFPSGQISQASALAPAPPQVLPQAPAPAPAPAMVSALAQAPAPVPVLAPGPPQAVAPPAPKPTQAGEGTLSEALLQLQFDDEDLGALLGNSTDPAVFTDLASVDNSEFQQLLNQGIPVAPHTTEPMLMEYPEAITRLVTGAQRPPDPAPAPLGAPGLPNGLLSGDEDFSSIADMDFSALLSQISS

[4] = biological target: Transcription factor p65 (Homo sapiens) (UniProt Q04206); test: Inhibition of NF-kappaB p65 subunit translocation from cytoplasm to nucleus in HUVEC assessed as NF-kappaB p65 subunit level in nuclear extract at 1 to 100 uM incubated for 2 hrs prior to TNFalpha challenge measured after 30 mins by densitometry
[5] = biological target: Transcription factor p65 (Homo sapiens) (UniProt Q04206); test: Inhibition of NF-kappaB p65 subunit translocation from cytoplasm to nucleus in HUVEC at 1 to 100 uM incubated for 2 hrs prior to TNFalpha challenge measured after 30 mins by SDS-PAGE
[6] = biological target: Transcription factor p65 (Homo sapiens) (UniProt Q04206); test: Inhibition of NF-kappaB p65 subunit translocation from cytoplasm to nucleus in HUVEC assessed as NF-kappaB p65 subunit level in cytoplasm at 1 to 100 uM incubated for 2 hrs prior to TNFalpha challenge measured after 30 mins by densitometry
Neutrophil = test: Inhibition of human neutrophil adhesion to human endothelial cells incubated for 2 hrs prior to TNFalpha challenge measured after 6 hrs by spectroscopy; type: functional, cell-based

CCOC(=O)C1C(c2ccc(C)cc2)N(c2ccccc2)OC12C(=O)Nc1ccccc12 (stereo not given)
pIC50 (HUVEC): 4.51
viability at 24 h [1]: 96%
MNTC at 24 h [2]: 234 µM

CCOC(=O)C1C(c2ccc([N+](=O)[O-])cc2)N(c2ccccc2)OC12C(=O)Nc1ccccc12 (stereo not given)
pIC50 (HUVEC): < 3.66
viability at 24 h [1]: 97%
MNTC at 24 h [2]: 218 µM

CCOC(=O)C1ON(c2ccccc2)C(c2ccc(F)c(F)c2)C12C(=O)Nc1ccc(F)cc12 (stereo not given)
pIC50 (HUVEC): 4.21
viability at 24 h [1]: 95%
MNTC at 24 h [2]: 107 µM

CCOC(=O)C1ON(c2ccccc2)C(c2cccc(F)c2)C12C(=O)Nc1ccccc12 (stereo not given)
pIC50 (HUVEC): < 3.79
viability at 24 h [1]: 98%
MNTC at 24 h [2]: 231 µM

CCOC(=O)C1ON(c2ccccc2)C(c2cccc(C)c2)C12C(=O)Nc1ccc(F)cc12 (stereo not given)
pIC50 (HUVEC): 4.35
viability at 24 h [1]: 98%
MNTC at 24 h [2]: 112 µM

CCOC(=O)C1C(c2cccc(F)c2)N(c2ccccc2)OC12C(=O)Nc1ccccc12 (stereo not given)
pIC50 (HUVEC): 4.46
viability at 24 h [1]: 98%
MNTC at 24 h [2]: 116 µM

CCOC(=O)C1ON(c2ccccc2)C(c2ccc(OC)cc2)C12C(=O)Nc1ccc(F)cc12 (stereo not given)
pIC50 (HUVEC): 4.38
viability at 24 h [1]: 96%
MNTC at 24 h [2]: 108 µM

CCOC(=O)C1C(c2ccc(F)cc2)N(c2ccccc2)OC12C(=O)Nc1ccccc12 (stereo not given)
pIC50 (HUVEC): 3.84
viability at 24 h [1]: 96%
MNTC at 24 h [2]: 231 µM

CCOC(=O)C1ON(c2ccccc2)C(c2ccc([N+](=O)[O-])cc2)C12C(=O)Nc1ccccc12 (stereo not given)
pIC50 (HUVEC): < 3.66
viability at 24 h [1]: 97%
MNTC at 24 h [2]: 218 µM

CCOC(=O)C1C(c2cccc(Cl)c2)N(c2ccccc2)OC12C(=O)Nc1ccccc12 (stereo not given)
pIC50 (HUVEC): 4.46
viability at 24 h [1]: 97%
MNTC at 24 h [2]: 223 µM

CCOC(=O)C1ON(c2ccccc2)C(c2ccc([N+](=O)[O-])cc2)C12C(=O)Nc1ccc(F)cc12 (stereo not given)
pIC50 (HUVEC): 4.49
viability at 24 h [1]: 97%
MNTC at 24 h [2]: 105 µM

CCOC(=O)C1C(c2cccc(OC)c2OC)N(c2ccccc2)OC12C(=O)Nc1ccc(F)cc12 (stereo not given)
pIC50 (HUVEC): 4.57
viability at 24 h [1]: 99%
MNTC at 24 h [2]: 102 µM

CCOC(=O)C1ON(c2ccccc2)C(c2cccc(OC)c2OC)C12C(=O)Nc1ccc(F)cc12 (stereo not given)
pIC50 (HUVEC): 4.49
viability at 24 h [1]: 98%
MNTC at 24 h [2]: 102 µM

CCOC(=O)C1C(c2ccc(C#N)cc2)N(c2ccccc2)OC12C(=O)Nc1ccc(F)cc12 (stereo not given)
pIC50 (HUVEC): 4.31
viability at 24 h [1]: 98%
MNTC at 24 h [2]: 110 µM

CCOC(=O)C1C(c2cccc(C)c2)N(c2ccccc2)OC12C(=O)Nc1ccccc12 (stereo not given)
pIC50 (HUVEC): 4.24
viability at 24 h [1]: 96%
MNTC at 24 h [2]: 234 µM

CCOC(=O)C1ON(c2ccccc2)C(c2ccc(C#N)cc2)C12C(=O)Nc1ccc(F)cc12 (stereo not given)
pIC50 (HUVEC): 4.32
viability at 24 h [1]: 96%
MNTC at 24 h [2]: 110 µM

CCOC(=O)C1C(c2cccc(Br)c2)N(c2ccccc2)OC12C(=O)Nc1ccccc12 (stereo not given)
pIC50 (HUVEC): 4.00
viability at 24 h [1]: 95%
MNTC at 24 h [2]: 203 µM

CCOC(=O)C1ON(c2ccccc2)C(c2ccc(F)cc2)C12C(=O)Nc1ccccc12 (stereo not given)
pIC50 (HUVEC): 4.29
viability at 24 h [1]: 96%
MNTC at 24 h [2]: 116 µM

CCOC(=O)C1ON(c2ccccc2)C(c2ccc(N(C)C)cc2)C12C(=O)Nc1ccc(F)cc12 (stereo not given)
pIC50 (HUVEC): 4.59
viability at 24 h [1]: 96%
MNTC at 24 h [2]: 110 µM

CCOC(=O)C1ON(c2ccccc2)C(c2ccc(F)cc2)C12C(=O)Nc1ccc(F)cc12 (stereo not given)
pIC50 (HUVEC): < 3.95
viability at 24 h [1]: 96%
MNTC at 24 h [2]: 111 µM

CCOC(=O)C1ON(c2ccccc2)C(c2cccc(Br)c2)C12C(=O)Nc1ccccc12 (stereo not given)
pIC50 (HUVEC): 4.24
viability at 24 h [1]: 95%
MNTC at 24 h [2]: 203 µM

CCOC(=O)C1ON(c2ccccc2)C(c2ccc(C(F)(F)F)cc2)C12C(=O)Nc1ccc(F)cc12 (stereo not given)
pIC50 (HUVEC): 4.24
viability at 24 h [1]: 96%
MNTC at 24 h [2]: 100 µM

CCOC(=O)C1ON(c2ccccc2)C(c2ccccc2F)C12C(=O)Nc1ccc(F)cc12 (stereo not given)
pIC50 (HUVEC): 4.29
viability at 24 h [1]: 96%
MNTC at 24 h [2]: 111 µM

S=C(S)N1CCCC1
inhibition [3]: Active

O=C(/C=C/C=C/c1ccc2c(c1)OCO2)N1CCCCC1 [PIPERINE]
pIC50 (HUVEC): 4.00
viability at 24 h [1]: 98%
MNTC at 24 h [2]: 250 µM

CCOC(=O)C1ON(c2ccccc2)C(c2ccc(Br)cc2)C12C(=O)Nc1ccc(F)cc12 (stereo not given)
pIC50 (HUVEC): 4.46
viability at 24 h [1]: 98%
MNTC at 24 h [2]: 98 µM

CCOC(=O)C1C(c2ccc(Cl)cc2)N(c2ccccc2)OC12C(=O)Nc1ccccc12 (stereo not given)
pIC50 (HUVEC): < 3.65
viability at 24 h [1]: 96%
MNTC at 24 h [2]: 223 µM

CCOC(=O)C1ON(c2ccccc2)C(c2cccc(F)c2)C12C(=O)Nc1ccc(F)cc12 (stereo not given)
pIC50 (HUVEC): 4.18
viability at 24 h [1]: 95%
MNTC at 24 h [2]: 111 µM

CCOC(=O)C1C(c2ccc(Br)cc2)N(c2ccccc2)OC12C(=O)Nc1ccccc12 (stereo not given)
pIC50 (HUVEC): 4.39
viability at 24 h [1]: 96%
MNTC at 24 h [2]: 203 µM

CCOC(=O)C1ON(c2ccccc2)C(c2cc(OC)c(OC)c(OC)c2)C12C(=O)Nc1ccc(F)cc12 (stereo not given)
pIC50 (HUVEC): 4.54
viability at 24 h [1]: 97%
MNTC at 24 h [2]: 96 µM

CCOC(=O)C1ON(c2ccccc2)C(c2cccc([N+](=O)[O-])c2)C12C(=O)Nc1ccccc12 (stereo not given)
pIC50 (HUVEC): 3.77
viability at 24 h [1]: 96%
MNTC at 24 h [2]: 218 µM

CCOC(=O)C1ON(c2ccccc2)C(c2ccc(Cl)cc2)C12C(=O)Nc1ccccc12 (stereo not given)
pIC50 (HUVEC): 3.83
viability at 24 h [1]: 96%
MNTC at 24 h [2]: 223 µM

CCOC(=O)C1ON(c2ccccc2)C(c2ccc(C)cc2)C12C(=O)Nc1ccccc12 (stereo not given)
pIC50 (HUVEC): 4.28
viability at 24 h [1]: 99%
MNTC at 24 h [2]: 234 µM

CCOC(=O)C1ON(c2ccccc2)C(c2cccc(C)c2)C12C(=O)Nc1ccccc12 (stereo not given)
pIC50 (HUVEC): 4.46
viability at 24 h [1]: 98%
MNTC at 24 h [2]: 234 µM

CCOC(=O)C1ON(c2ccccc2)C(c2ccc(OCC)cc2)C12C(=O)Nc1ccc(F)cc12 (stereo not given)
inhibition [4]: Active
pIC50 (HUVEC): 4.92
viability at 24 h [1]: 97%
inhibition [5]: Dose-dependent effect
inhibition [6]: Active
pIC50 (Neutrophil): 4.90
inhibition (Neutrophil): Dose-dependent effect
MNTC at 24 h [2]: 105 µM

CCOC(=O)C1ON(c2ccccc2)C(c2ccc(Cl)cc2)C12C(=O)Nc1ccc(F)cc12 (stereo not given)
pIC50 (HUVEC): 4.27
viability at 24 h [1]: 96%
MNTC at 24 h [2]: 107 µM

CCOC(=O)C1C(c2cccc([N+](=O)[O-])c2)N(c2ccccc2)OC12C(=O)Nc1ccccc12 (stereo not given)
pIC50 (HUVEC): 4.35
viability at 24 h [1]: 98%
MNTC at 24 h [2]: 218 µM

CCOC(=O)C1ON(c2ccccc2)C(c2cccc(Cl)c2)C12C(=O)Nc1ccccc12 (stereo not given)
pIC50 (HUVEC): 4.60
viability at 24 h [1]: 96%
MNTC at 24 h [2]: 223 µM

CCOC(=O)C1ON(c2ccccc2)C(c2ccc(Br)cc2)C12C(=O)Nc1ccccc12 (stereo not given)
pIC50 (HUVEC): 4.29
viability at 24 h [1]: 98%
MNTC at 24 h [2]: 203 µM
